Test results published in publication PMC6312359, “Diisopropylphenyl-imidazole (DII): A new compound that exerts anthelmintic activity through novel molecular mechanisms” (PLoS Neglected Tropical Diseases, 2018).
Converted amounts (≈) assume the structure as drawn. “And” between values parts separate entries of the source, which are not always exact repeats. Identical values can stand only once. “Also recorded” adds a separate entry of the source.

Key:
C. elegans [1] = assay: Toxicity at early developmental stages (eggs, hatching, developmental rate); assay type: in vivo, Caenorhabditis elegans
Description: Briefly, gravid worms were collected and exposed to an alkaline hypochlorite solution (0.5 M NaOH and 1% NaOCl) to destroy adult worm tissues (eggs are resistant to bleach due to their chitin eggshell). Eggs were subsequently isolated with a sterile 60% sucrose solution and seeded on 35 mm NGM plates containing DII (100, 300 and 600 μM) or DMSO as a control. Hatched animals were quantified after 48 h. The results were expressed as follows: Number of living animals x 100/ Total number of eggs seeded. This experiment was independently repeated three times.
For ovicidal assessment, isolated eggs were seeded in NGM plates containing DII (600 μM) and video-recorded for 12 h. An egg was considered as non-viable if no hatching was observed during the recorded time.
The number of animals at different developmental stages (L1-L3, L4, and adults) was counted at 24, 48 and 72 h. The results were expressed as the number of animals at a given stage x 100/ Total number of living worms at that time point. This experiment was independently repeated three times.

C. elegans [2] = assay: Acute paralysis assays; assay type: in vivo, Caenorhabditis elegans; conditions: 10 min
Description: Acute paralysis assays were carried out in microtiter plates containing the drug dissolved in M9 buffer. […] Each drug concentration was tested in two wells (containing 30 animals each) within a single experiment. […] The experiment was independently repeated at least three times.

C. elegans [3] = assay: Body length measurements; assay type: in vivo, Caenorhabditis elegans; conditions: 600 μM, 2 h
Description: Vehicle (0.75% DMSO) was used as a control. After 2 h, images were acquired and body length was measured using FIJI-ImageJ software. At least three independent experiments were analyzed.

C. elegans [4] = assay: Pharyngeal pumping; assay type: in vivo, Caenorhabditis elegans; conditions: wild-type and unc-29 young adults, two hours of exposure; listed as DII
Description: Supplementary file pntd.0007021.s006.tif: S6 Fig DII effects on pharyngeal pumping. Wild-type and unc-29 young adult worms (24 h past L4) were transferred to bacteria-seeded NGM plates containing different DII concentrations. After two hours of DII exposure, the number of contractions in the terminal bulb of the pharynx (pumps per minute) was counted using a stereomicroscope at 50x magnification. […] Bars represent the mean ± SEM from n = 20 animals per condition. Statistical differences compared to the non-treated condition (0 μM DII) within the same strain (ns: no statistically significant p>0.05, ***p<0.001). (TIF) Click here for additional data file.

C. elegans [5] = assay: Egg-laying assays; assay type: in vivo, Caenorhabditis elegans; conditions: gravid worms
Description: Age-synchronized gravid worms were transferred to solid NGM plates containing different drug concentrations (100–300 μM). Each concentration was evaluated in triplicate and DMSO was used as a control. After 1 h, the number of laid eggs per worm was counted. This experiment was independently repeated three times.

E. coli OP50 = assay: OP50 growth in screening wells (qualitative); assay type: cell-based, Escherichia coli; conditions: 150 μg/ml, qualitative observation
Excerpt: During the screening assays, we qualitatively noticed that OP50 growth was inhibited in wells containing MI. This effect was not observed with DII. To quantify this observation, we determined minimum inhibitory concentration (MIC) and minimum bactericidal concentration (MBC) of both compounds in E. coli cultures (Fig 2A). […] Similar values were obtained when we performed these assays on S. aureus, a Gram-positive bacteria (Fig 2A). […] As we are here screening for specific anthelmintic activity, we restricted our further analysis to compounds that appear to exert nematicidal action without obvious lethal effects on other organisms. Therefore, we focused our studies only on DII, relegating the evaluation of MI as a potential anthelmintic drug.

C. elegans [6] = assay: Larvicidal activity assays
Description: Three concentrations of drugs were used (100, 300 and 600 μM) and each concentration was repeated in triplicate. After 24, 48 and 72 h alive worms were scored and the results were expressed as the percentage of living worms related to the initial number of L1 animals. This experiment was independently repeated three times.

[7] = tested on: Escherichia coli ATCC 25922; assay: Minimum inhibitory and bactericidal concentrations, microdilution; assay type: cell-based; conditions: 24 h at 37°C
Description: (§1) The strains used in this study were Escherichia coli ATCC 25922 and Staphylococcus aureus ATCC 25923, kindly provided by Dr. Ziegler (Bacillus Genetic Stock Center, The Ohio State University). Stocks were stored in Mueller Hinton Broth (MHB, Biokar Diagnostics, France) supplemented with glycerol 20% at -70°C. Before running each test, the strains were incubated for 48 h at 37°C in MHB. Finally, the bacterial strains were sub-cultured in MHB at 37°C for 24 h. The solutions of antimicrobial agents and imidazolium salts were prepared following the Clinical and Laboratory Standards Institute (CLSI) guidelines for determination of Minimum Inhibitory Concentrations by the microdilution method (CLSI 2009). […] Cultures were incubated as described above and adjusted to OD625nm ~ 0.08–0.13 by the direct colony suspension method in saline water and finally adjusted to 2–8 10^5 CFU/ml by diluting 1:150 in MHB before testing. A volume of 100 μl of each sample dilution in saline water was transferred to the microplate well. Finally, an equal volume of the inoculum was added. The MIC was the lowest concentration at which there was no visible growth when compared with controls after 24 h at 37°C. To assess the minimum bactericidal concentration (MBC), 20 μl aliquots were taken from the wells where no visible growth was observed, seeded on petri dishes and covered with MH agar (MHA) at 45°C. The compounds were considered bactericidal at the concentration at which no visible colony was observed on the plate after 24 h at 37°C. All conditions were run at least in duplicate. The results were obtained from at least 3 independent experiments.

[8] = tested on: Staphylococcus aureus ATCC 25923; assay: as above; assay type: cell-based; conditions: ATCC25923, 24 h at 37°C
Description: as §1

[9] = eggs exposed to 600 μM, 24, 48 and 72 h

## CC(C)c1cccc(C(C)C)c1-n1ccnc1 [Compound 11]
C. elegans [1]; 600 μM, within 12 hours, video recording
  eggs hatched: 100%
C. elegans [1]; [9]
  developmental rate, unc-29 null mutants: delays the development
  developmental rate, wild-type: delays nematode development
C. elegans [1]; eggs exposed to 100, 300 and 600 μM, 48 h
  number of viable animals relative to eggs seeded: significantly reduced
C. elegans [1]; eggs on DII-containing plates (600 μM), 72 h
  survivors that were adults: less than 5%
C. elegans [2]; 100 μM
  paralysis in CB407 unc-49(e407)III hypersensitive strain: no paralyzing effects
C. elegans [2]; 800 μM (highest concentration tested)
  immobilized animals: 25%
C. elegans [2]; DII 100 and 200 μM, intact animals
  change of the dose-effect curve of levamisole by DII: no significant changes
C. elegans [3]
  body length: no significant changes
C. elegans [4]
  pharyngeal pumping rate: inhibits the pharyngeal pumping; also recorded: decreases pharyngeal pumping rate
C. elegans [5]; 100 μM
  laid eggs in 1 h, fold more than controls: did not produce an increase
C. elegans [5]; 300 μM, 1 h
  reduction in the number of laid eggs: 3.6 fold
E. coli OP50
  OP50 growth in screening wells: not observed
C. elegans [6]; 600 μM
  larvicidal effect on unc-29 null mutant larvae: as sensitive to the larvicidal effects of DII as the wild-type strain
C. elegans [6]; 600 μM, 24, 48 and 72 h
  larvicidal effect on unc-38, unc-63, lev-8 and lev-1 larvae: sensitive to DII
C. elegans [6]; 100, 300 and 600 μM, 24, 48 and 72 h
  larval viability, wild-type L1: significant decrease
[7]; listed as DII (11)
  MIC E. coli: 256 µg/mL (≈ 1120 µM)
[7]; Escherichia coli, ATCC25922
  MBC: > 256 µg/mL
  MIC: 256 µg/mL and 1110 µM
[8]; read-out: MBC S. aureus
  MBC: > 256 µg/mL
[8]; read-out: MIC S. aureus
  MIC: 256 µg/mL (≈ 1120 µM)
